From ChEMBL document CHEMBL1212698, “A forward chemical genetic screen reveals an inhibitor of the Mre11-Rad50-Nbs1 complex” (Nat Chem Biol, 2008)
Active and inactive are the calls of the source. No cut-off for these calls is given here.

Legend:
Xenopus laevis [1] = organism: Xenopus laevis; assay: (§1) Inhibition of DNA double strand break-induced ataxia telangiectasia mutated activation in Xenopus laevis extract assessed as inhibition of H2AX phosphorylation
[2] = Cell cycle arrest in human TOSA4 cells assessed as accumulation at G2 phase at 50 uM after 24 hrs by FACS analysis; type: functional, cell-based
Xenopus laevis [3] = organism: Xenopus laevis; assay: Stimulation of Mre11/Rad50/Nbs1-dependent DNA tethering in Xenopus laevis extract at 100 uM
HEK293 [4] = assay: Cytotoxicity against human HEK293 cells at 50 uM after 24 hrs; type: cell-based; settings: hek293, 24 h
[5] = Cell cycle arrest in human TOSA4 cells assessed as accumulation at G2 phase at 100 uM after 24 hrs by FACS analysis; type: functional, cell-based
Nucleic Acid = assay: Inhibition of DNA tethering in Xenopus laevis extract at 10 uM; type: nucleic-acid assay
Xenopus laevis [6] = organism: Xenopus laevis; assay: Induction of FLAG-tagged Mre11/Rad50/Nbs1 dissociation in Xenopus laevis extract at 100 uM
Xenopus laevis [7] = organism: Xenopus laevis; assay: Inhibition of ataxia telangiectasia mutated-dependent Nbs1 phosphorylation in Xenopus laevis extract assessed as electrophoretic mobility by Western blot analysis
Homo sapiens = organism: Homo sapiens; assay: Inhibition of human Mre11/Rad50/Nbs1-dependent DNA tethering assessed as Rad50-associated adenylate kinase activity at 0.05 to 0.8 mM
Xenopus laevis [8] = organism: Xenopus laevis; assay: Inhibition of DNA double strand break-induced Mre11/Rad50/Nbs1-dependent ATM autophosphorylation at Ser1981
HEK293 [9] = assay: Cytotoxicity against human HEK293 cells at 25 uM after 24 hrs; type: cell-based; settings: hek293, 24 h
[10] = target: T1, Double-strand break repair protein MRE11 (Homo sapiens) (UniProt P49959); assay: Inhibition of human Mre11 ExoIII nuclease activity at 100 uM
T1 sequence (whole entry): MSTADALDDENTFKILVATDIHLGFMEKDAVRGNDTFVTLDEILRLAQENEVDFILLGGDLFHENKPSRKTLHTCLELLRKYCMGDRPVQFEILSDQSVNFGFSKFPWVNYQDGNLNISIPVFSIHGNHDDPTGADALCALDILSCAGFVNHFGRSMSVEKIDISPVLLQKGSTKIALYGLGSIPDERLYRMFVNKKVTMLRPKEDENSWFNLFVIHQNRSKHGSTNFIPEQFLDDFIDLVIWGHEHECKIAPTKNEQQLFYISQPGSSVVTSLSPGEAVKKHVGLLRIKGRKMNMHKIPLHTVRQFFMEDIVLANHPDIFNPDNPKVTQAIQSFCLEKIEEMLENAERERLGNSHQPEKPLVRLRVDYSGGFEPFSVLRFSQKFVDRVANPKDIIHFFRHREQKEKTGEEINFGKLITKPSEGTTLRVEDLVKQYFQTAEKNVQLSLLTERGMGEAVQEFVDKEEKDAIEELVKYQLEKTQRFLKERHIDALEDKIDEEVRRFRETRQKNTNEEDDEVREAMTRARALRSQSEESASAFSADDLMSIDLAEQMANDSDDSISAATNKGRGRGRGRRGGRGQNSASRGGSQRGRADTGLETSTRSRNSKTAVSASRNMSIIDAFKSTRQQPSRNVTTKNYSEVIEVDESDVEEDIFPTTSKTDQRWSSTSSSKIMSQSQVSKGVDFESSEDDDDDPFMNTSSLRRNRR

Xenopus laevis [11] = organism: Xenopus laevis; assay: Inhibition of monomeric ataxia telangiectasia mutated catalytic activity at 50 uM
Xenopus laevis [12] = organism: Xenopus laevis; assay: Inhibition of Mer11 binding to streptavidin-bound biotinylated DNA in Xenopus laevis extract up to 1 mM
[13] = Inhibition of dimeric recombinant ataxia telangiectasia mutated activation in Xenopus laevis extract in presence of DNA, Mre11/Rad50/Nbs1
TOSA4 = assay: Inhibition of gene conversion in human TOSA4 cells transfected with I-Sec1 expressing plasmid assessed as decrease in GFP-positive cells at 25 uM after 24 hrs by gene conversion assay; type: functional, cell-based
Xenopus laevis [14] = organism: Xenopus laevis; assay: Inhibition of ataxia telangiectasia mutated binding to streptavidin-bound biotinylated DNA in Xenopus laevis extract up to 1 mM
[15] = as §1
U2OS [16] = assay: Cell cycle arrest in human U2OS cells assessed as accumulation at G2 phase at 100 uM after 24 hrs by FACS analysis; type: functional, cell-based
[17] = target: T1, Double-strand break repair protein MRE11 (Homo sapiens); assay: Inhibition of human Mre11 nuclease activity at 100 uM
Xenopus laevis [18] = organism: Xenopus laevis; assay: Inhibition of ataxia telangiectasia mutated-dependent Chk2 phosphorylation in Xenopus laevis extract assessed as electrophoretic mobility by Western blot analysis
U2OS [19] = assay: Inhibition of 10 Gy irradiation-induced G2/M check point in human U2OS cells using G2 synchronized cells at 25 uM after 24 hrs by FACS analysis; type: functional, cell-based

O=c1cc(-c2ccccc2)[nH]c(=S)[nH]1
inhibition (Xenopus laevis [1]): inactive

N=C1NC(=O)/C(=C/c2ccc(O)cc2)S1 [MIRIN]
Activity [2]: Active
Activity (Xenopus laevis [3]): Active
Activity (HEK293 [4]): Non-toxic
Activity [5]: Active
inhibition (Nucleic Acid): inactive
Activity (Xenopus laevis [6]): inactive
inhibition (Xenopus laevis [7]): Active
Activity (Homo sapiens): inactive
inhibition (Xenopus laevis [8]): Active
Activity (HEK293 [9]): Non-toxic
inhibition [10]: inactive
inhibition (Xenopus laevis [11]): inactive
inhibition (Xenopus laevis [12]): inactive
IC50 [13]: 12 µM
inhibition (TOSA4): Active
inhibition (Xenopus laevis [14]): inactive
IC50 [15]: 66 µM
Activity (U2OS [16]): Active
inhibition [17]: Active
inhibition (Xenopus laevis [18]): Active
inhibition (U2OS [19]): Active
